The target in data set [1] is G-protein coupled receptor 84 (Homo sapiens, UniProt Q9NQS5). In words: Agonist activity at GPR84 (unknown origin) expressed in HEK293 cells coexpressing Galpha16 protein by Fluo-4 AM dye based calcium mobilization assay. It is filed as functional, cell-based.
For data set [2], the target named is T1, Glucose-dependent insulinotropic receptor (Homo sapiens, UniProt Q8TDV5).
T1 sequence (Q8TDV5 whole entry): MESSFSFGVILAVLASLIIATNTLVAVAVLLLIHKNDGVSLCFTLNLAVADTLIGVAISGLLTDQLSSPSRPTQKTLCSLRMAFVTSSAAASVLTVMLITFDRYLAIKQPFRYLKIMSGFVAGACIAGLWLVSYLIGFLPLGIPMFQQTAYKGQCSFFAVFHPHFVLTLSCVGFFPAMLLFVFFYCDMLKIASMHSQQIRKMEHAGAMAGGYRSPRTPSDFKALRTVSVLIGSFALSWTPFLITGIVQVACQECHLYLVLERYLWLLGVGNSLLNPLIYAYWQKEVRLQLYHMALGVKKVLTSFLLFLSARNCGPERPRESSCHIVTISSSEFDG
Nature of the data set: Agonist activity at GPR119 (unknown origin) by Fluo-4 AM dye based calcium mobilization assay. The format is functional.

For data set [3], the target named is T2, Free fatty acid receptor 1 (Homo sapiens, UniProt O14842). In words: Agonist activity at GPR40 (unknown origin) by Fluo-4 AM dye based calcium mobilization assay. The format is functional.
T2 sequence (O14842 whole entry): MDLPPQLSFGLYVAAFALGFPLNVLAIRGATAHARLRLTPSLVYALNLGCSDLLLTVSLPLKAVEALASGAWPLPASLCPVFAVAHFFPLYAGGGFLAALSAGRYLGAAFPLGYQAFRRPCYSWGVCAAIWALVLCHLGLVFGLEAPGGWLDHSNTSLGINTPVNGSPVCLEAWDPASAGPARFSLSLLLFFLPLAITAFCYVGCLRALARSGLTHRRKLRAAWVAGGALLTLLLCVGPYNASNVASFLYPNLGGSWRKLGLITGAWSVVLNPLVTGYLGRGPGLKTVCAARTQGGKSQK
The target of data set [4] is T3, Free fatty acid receptor 3 (Homo sapiens, UniProt O14843).
T3 sequence (O14843 whole entry): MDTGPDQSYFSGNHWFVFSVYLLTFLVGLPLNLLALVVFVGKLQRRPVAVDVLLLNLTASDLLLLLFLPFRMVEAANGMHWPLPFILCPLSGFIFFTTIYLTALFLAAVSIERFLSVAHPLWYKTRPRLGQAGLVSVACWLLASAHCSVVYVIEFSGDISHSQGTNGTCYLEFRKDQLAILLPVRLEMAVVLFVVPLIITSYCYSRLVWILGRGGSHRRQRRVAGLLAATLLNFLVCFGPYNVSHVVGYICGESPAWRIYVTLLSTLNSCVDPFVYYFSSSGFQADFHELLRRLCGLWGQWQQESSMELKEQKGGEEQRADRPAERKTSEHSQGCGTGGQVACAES
Nature of the data set: Agonist activity at GPR41 (unknown origin) by Fluo-4 AM dye based calcium mobilization assay. It is filed as functional.

Data set [5] has as its target T4, Glucose-dependent insulinotropic receptor (Homo sapiens) (UniProt Q8TDV5).
T4 sequence (whole entry): T1 sequence (Q8TDV5 whole entry)
In words: Agonist activity at GPR119 (unknown origin) up to 100 uM by Fluo-4 AM dye based calcium mobilization assay. It is filed as functional.

Data set [6] is described as follows: Oral bioavailability in ICR mouse at 10 mg/kg administered through gavage measured up to 24 hrs post dose by LC-MS/MS analysis. The format is ADME, organism-based. Conditions: in vivo.
For data set [7], the target named is T2, Free fatty acid receptor 1. In words: Agonist activity at GPR40 (unknown origin) up to 100 uM by Fluo-4 AM dye based calcium mobilization assay. The format is functional.
Data set [8] has as its target T5, Free fatty acid receptor 3 (Homo sapiens) (UniProt O14843).
T5 sequence (whole entry): T3 sequence (O14843 whole entry)
In words: Agonist activity at GPR41 (unknown origin) up to 100 uM by Fluo-4 AM dye based calcium mobilization assay. The format is functional.

A short description of data set [9]: AUC (0 to t) in ICR mouse plasma at 10 mg/kg, po administered through gavage measured up to 24 hrs post dose by LC-MS/MS analysis. It is filed as ADME, organism-based. Further details: time < 24 hr, dose 10 mg/kg, route oral.
Data set [10] can be described thus: Cmax in ICR mouse plasma at 10 mg/kg, po administered through gavage measured up to 24 hrs post dose by LC-MS/MS analysis. The format is ADME, organism-based. Set-up: dose 10 mg/kg, route oral.
For data set [11], the target named is T6, Free fatty acid receptor 4 (Homo sapiens) (UniProt Q5NUL3).
T6 sequence (whole entry): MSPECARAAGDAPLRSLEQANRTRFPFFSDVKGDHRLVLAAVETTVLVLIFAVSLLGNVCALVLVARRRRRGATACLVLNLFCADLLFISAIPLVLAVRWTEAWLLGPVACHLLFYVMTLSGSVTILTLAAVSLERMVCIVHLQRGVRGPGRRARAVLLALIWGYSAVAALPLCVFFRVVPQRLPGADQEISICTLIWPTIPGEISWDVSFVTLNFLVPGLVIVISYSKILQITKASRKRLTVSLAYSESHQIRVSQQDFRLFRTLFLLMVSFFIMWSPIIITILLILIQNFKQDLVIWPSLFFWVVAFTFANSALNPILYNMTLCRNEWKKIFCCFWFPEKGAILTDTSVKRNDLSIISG
In words: Agonist activity at GPR120 (unknown origin) up to 100 uM by Fluo-4 AM dye based calcium mobilization assay. It is filed as functional.

Active and inactive are the calls of the source. No cut-off for these calls is given here.

Chain of G-protein coupled receptor 84 (Q9NQS5 whole entry): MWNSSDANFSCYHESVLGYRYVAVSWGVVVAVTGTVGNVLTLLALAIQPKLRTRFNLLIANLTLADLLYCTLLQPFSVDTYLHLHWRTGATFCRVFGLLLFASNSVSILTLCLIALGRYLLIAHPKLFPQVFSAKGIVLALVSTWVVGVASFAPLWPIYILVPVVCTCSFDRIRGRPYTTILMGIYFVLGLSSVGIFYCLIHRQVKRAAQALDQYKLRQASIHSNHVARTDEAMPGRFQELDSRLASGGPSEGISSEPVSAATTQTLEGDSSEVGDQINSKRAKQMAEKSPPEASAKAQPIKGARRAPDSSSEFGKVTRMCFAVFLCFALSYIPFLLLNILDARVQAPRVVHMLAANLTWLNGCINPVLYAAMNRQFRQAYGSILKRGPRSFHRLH

Turning to `Cc1cc(O)nc(SCCCCc2ccccc2)n1`, in [1], the EC50 was greater than 100 µM. On to `CCCCCCc1nc(O)cc(O)n1`, for which the concentration giving a half-maximal response (EC50) in data set [1] was 0.454 µM.

`C#CCCSc1nc(O)cc(O)n1`: the EC50 in [1] turned out to be 8.85 µM. Same read-out and setting: the value for `Nc1cc(O)nc(SCCCCc2ccccc2)n1` was greater than 100 µM; that for `CCCCCCSc1nc(O)cc(=O)n1C` was greater than 100 µM. In the case of `CCCCCCOc1cc(O)nc(SCCCCCC)n1`, in data set [1], the concentration for a half-maximal effect (EC50) is greater than 100 µM.

As to `CC(C)(C)OC(=O)N1CCC(OCc2nc(-c3ccncc3)no2)CC1`, the EC50 in data set [2] was found to be 5.13 µM. As to `OCCCCCCCCSc1nc(O)cc(O)n1`, in data set [1], the EC50 was greater than 100 µM. In the case of `Nc1cc(N)nc(SCCCCc2ccccc2)n1`, the concentration giving a half-maximal response (EC50) in data set [1] is greater than 100 µM. With `CC/C=C\C/C=C\C/C=C\C/C=C\C/C=C\C/C=C\CCC(=O)O` [DOCONEXENT], in data set [3], the concentration for a half-maximal effect (EC50) was 11.7 µM. In the case of `N#CCCCCc1nc(O)cc(O)n1`, the concentration giving a half-maximal response (EC50) in [1] was greater than 100 µM. Take `CCCC(=O)[O-].[Na+]` [SODIUM BUTYRATE]: the concentration for a half-maximal effect (EC50) in data set [4] worked out at 10.1 µM. As for `Oc1cc(C(F)(F)F)nc(SCCCCc2ccccc2)n1`, in [1], the EC50 is greater than 100 µM. Still for that read-out and setting: with `CCCCCCSc1nc(OCCCCCCCO)cc(=O)[nH]1` the figure was greater than 100 µM. Consider `CCCCCCCCCc1cc(O)cc(O)n1`, for which the outcome in data set [5], in data set [7], in [8] and in data set [11] was inactive. Also, the bioavailability in [6] amounted to 24.3%. In addition, in data set [9], the AUC(0-t) at 24 h was 399 ng·h/mL. In addition, the concentration in [10] peaked (Cmax) at 229 ng/mL. As for `Cc1c(O)nc(SCCCCc2ccccc2)nc1O`, the EC50 in [1] was greater than 100 µM. With `CC/C=C\CCSc1nc(O)cc(O)n1`, the EC50 in data set [1] amounted to 0.938 µM. Still for that read-out and setting: the value for `CCCCCCSc1nc(O)cc(=O)n1Cc1ccccc1` was greater than 100 µM.

The values are drawn from ChEMBL document CHEMBL3826952, “Design and Synthesis of 2-Alkylpyrimidine-4,6-diol and 6-Alkylpyridine-2,4-diol as Potent GPR84 Agonists” (ACS Med Chem Lett, 2016).
